In patent US11401255B2, “Small molecule activators of Parkin enzyme function” (Mayo Foundation for Medical Education and Research, priority 2016, dated 2022):

Tests used:
HeLa EGFP-Parkin cells = assay: Co-recruitment of autophagy receptors to mitochondria (immunofluorescence); assay type: cell-based, human
Method: Cells were grown on poly-D-lysine coated glass coverslips. After treatments, cells were fixed in 4% paraformaldehyde and permeabilized using 1% Triton X-100, for each 10 min. Cells were blocked in 10% goat serum. Primary and secondary antibodies were diluted in 1% BSA/PBS and each incubated for 1 h at RT. Primary antibodies used: DNA (mouse, 1:250, Progen, AC-30-10), NBR1 (mouse, 1:100, Abnova H00004077-M01), NDP52 (rabbit, 1:400, Proteintech, 12229-1-AP), OPTN (mouse, 1:200, Santa Cruz, sc-166576), p62 (mouse, 1:400, BD Biosciences, 610832), pSer65-Ub (rabbit, 1:500, in-house (Fiesel et al., EMBO Reports (2015) 16:1114-30; Fiesel et al., (2015) Autophagy 11:2125-2126)), TAX1BP1 (rabbit, 1:200, Cell Signaling, #5105), TOM20 (mouse, 1:100, Santa Cruz, sc-17764), TOM20 (rabbit, 1:2000, Proteintech, 11802-1-AP). Secondary antibodies conjugated to AlexaFluor-568 or-647 (Invitrogen) were diluted 1:1000. Hoechst 33342 (Invitrogen) was diluted 1:5000 to counterstain the nuclei.
To validate the activation of Parkin further downstream in the pathway, co-recruitment of endogenous autophagy receptors to mitochondria in HeLa EGFP-Parkin cells was analyzed. These dual adaptors recognize pSer65-Ub chains on damaged mitochondria and facilitate their engulfment by autophagosomal membrane via their interaction with LC3 proteins (Lazarou et al., Nature (2015) 524:309-14; Heo et al., Mol. Cell (2015) 60:7-20).

[1] = Metabolic stability in mouse liver microsomes; assay type: in vitro ADME; details: 2 μM, 40 minutes, mouse hepatic microsomes
Method: Metabolic stability was defined as the percentage of parent compound lost over time in the presence of a metabolically active test system, such as rodent liver microsomal fractions.
Mouse hepatic microsomes were isolated from pooled (50), perfused livers of BALB/c male mice according to the standard protocol (Hill, J. R. in Current Protocols in Pharmacology 7.8.1-7.8.11, Wiley Interscience, 2003). The batch of microsomes was tested for quality control using imipramine, propranolol and verapamil as reference compounds. Microsomal incubations were carried out in 96-well plates in 5 aliquots of 40 μL each (one for each time point). Liver microsomal incubation medium contained PBS (100 mM, pH 7.4), MgCl2 (3.3 mM), NADPH (3 mM), glucose-6-phosphate (5.3 mM), glucose-6-phosphate dehydrogenase (0.67 units/mL) with 0.42 mg of liver microsomal protein per mL. Control incubations were performed replacing the NADPH-cofactor system with PBS. Compounds 1-4 and 31 (2 μM, final solvent concentration 1.6%) were each incubated with microsomes at 37° C. while shaking at […]. Incubations were performed in duplicates. Five time points over 40 minutes were analyzed. The reactions were stopped by adding 12 volumes of 90% acetonitrile-water to incubation aliquots, followed by protein sedimentation by centrifuging at 5500 rpm for 3 minutes. Supernatants were analyzed using the HPLC system coupled with tandem mass spectrometer. The elimination constant (kel), half-life (t1/2) and intrinsic clearance (Clint) were determined in a plot of ln(AUC) versus time, using linear regression analysis:
[formula] [formula] In order to indicate the quality of the linear regression analysis, the R (correlation coefficient) values were provided. In some cases, the last time point was excluded from the calculations to ensure acceptable logarithmic linearity of decay. C. Results

Parkin = Parkin (Homo sapiens (Human), UniProt O60260); assay: Parkin substrates and pS65-Ub western blot in HeLa cells stably expressing untagged Parkin; assay type: cell-based; details: 5 μM, 2 h, then 3.5 μM CCCP
Sequence of Parkin (O60260 whole entry): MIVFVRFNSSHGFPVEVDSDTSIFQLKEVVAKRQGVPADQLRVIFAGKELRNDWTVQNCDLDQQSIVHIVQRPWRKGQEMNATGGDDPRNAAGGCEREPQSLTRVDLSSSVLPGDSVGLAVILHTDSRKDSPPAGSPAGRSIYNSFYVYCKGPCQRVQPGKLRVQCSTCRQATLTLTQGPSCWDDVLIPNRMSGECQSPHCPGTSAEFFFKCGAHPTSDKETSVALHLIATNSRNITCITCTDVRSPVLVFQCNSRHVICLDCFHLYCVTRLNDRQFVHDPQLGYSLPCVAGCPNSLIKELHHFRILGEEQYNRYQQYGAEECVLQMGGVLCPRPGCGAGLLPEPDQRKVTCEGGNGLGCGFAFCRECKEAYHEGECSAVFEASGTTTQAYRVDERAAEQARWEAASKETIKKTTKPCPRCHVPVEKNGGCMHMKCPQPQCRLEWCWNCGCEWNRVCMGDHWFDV
Method: HeLa cells stably expressing untagged Parkin were left untreated or pre-treated with 5 μM of Compounds 1, 2, 3, 4, and 31 for 2 h and treated without (−) or with (+) low dose CCCP (3.5 μM CCCP). As a positive control (PC), some cells were treated with 10 μM CCCP. Lysates were loaded onto 8-16% Tris-Glycine gels, blotted onto membranes and probed with antibodies against Parkin substrates.
HeLa cells stably expressing untagged Parkin were left untreated or pre-treated with 5 μM of Compounds 1, 2, 3, 4, and 31 for 2 h and treated without (−) or with (+) low dose CCCP (3.5 μM CCCP). The positive control (PC) was treated with 10 μM CCCP for 2 h. Lysates were loaded onto 8-16% Tris-Glycine gels, blotted onto membranes and probed with antibodies against pS65-Ub.
Cells were harvested in RIPA buffer or NP-40 lysis buffer containing protease and phosphatase inhibitors (Complete and PhosStop, Roche Applied Science) with the exception of Parkin Ub charging experiments where preheated (95° C.) SDS lysis buffer (50 mM Tris pH 7.6, 150 mM NaCl, 1% SDS) was used. Concentration of cell lysates was determined with bicinchoninic acid (Pierce Biotechnology). For Parkin Ub charging experiments, aliquots of lysates were treated with […] for 1 h at 37° C. pH was neutralized with equinormal HCl.
Protein was subjected to SDS-PAGE using 4-20% or 8-16% Tris-Glycine gels (Invitrogen) and transferred onto polyvinylidene fluoride (PVDF) (Millipore). Membranes were incubated with primary antibodies overnight at 4° C. followed by HRP-conjugated secondary antibodies (1:10,000; Jackson ImmunoResearch Laboratories). Primary antibodies used: beta III tubulin (rabbit, 1:1000, CST, #5568, CST), FLAG (mouse, 1:250,000, Sigma, F3165), GAPDH (mouse, 1:100,000-500,000, Meridian Life science, H86504M), GST (1:10,000, Sigma, G7781), MFN1 (mouse, 1:5,000, Abcam, ab57602), MFN2 (mouse, 1:5,000, Abcam, ab56889), Parkin (mouse, 1:2,000, Cell Signaling, #4211), pSer65-Ub (rabbit, 1:15,000, in-house (Fiesel et al., EMBO Reports (2015) 16:1114-30; Fiesel et al., (2015) Autophagy 11:2125-2126)), TOM70 (rabbit, 1:5,000, Proteintech, 14528-1-AP), UBE2L3 (rabbit, 1:10,000, ProteinTech, 14415-1-AP), VDAC1 (mouse, 1:5,000, Abcam, ab14734), vinculin (mouse, 1:100,000, Sigma, V9131).
As readout for its activation, a catalytic site mutant that can be used to trap Ub-charged Parkin was employed. […] To further validate effects on enhanced activation, we used HeLa cells expressing untagged native Parkin. PC treatment with 10 μM CCCP induced pSer65-Ub signals and the complete degradation of some substrates (e.g., Mitofusins) while the most abundant, VDAC1, was still ubiquitylated (FIG. 8). Similar effects were seen when cells had been pre-incubated with 5 μM of compound before a low dose CCCP, which had no effect on its own.

| SMILES | co-localization of OPTN, NBR1, NDP52, p62 and TAX1BP1 with Parkin on damaged mitochondria (HeLa EGFP-Parkin cells) | metabolic stability [1] | Parkin substrate levels (ubiquitination and degradation) (Parkin) | pS65-Ub signal (western blot) (Parkin) |
| --- | --- | --- | --- | --- |
| O=C(Cn1cnc2c1CCCC2)Nc1ccc(-c2ccccc2)cc1 [Compound 1] | increased co-localization | moderate stability | reduced substrate levels | robust induction of pS65-Ub |
| CC(C)c1nccn1CC(=O)Nc1ccc(-c2ccccc2)cc1 [Compound 2] | increased co-localization | moderate stability | reduced substrate levels | robust induction of pS65-Ub |
| CC(C)(C)Sc1ccc(NC(=O)Cn2ccnc2)cc1 [Compound 3] | increased co-localization | high metabolic stability | reduced substrate levels | robust induction of pS65-Ub |
| O=C(Cn1ccnc1-c1ccccn1)Nc1ccc(-c2ccccc2)cc1 [Compound 4] | increased co-localization | low stability | reduced substrate levels | robust induction of pS65-Ub |
| Cc1nc2c(c(N3CCCN(Cc4ccccc4)CC3)n1)CCCC2 [Compound 31] | increased co-localization | low stability | reduced substrate levels | robust induction of pS65-Ub |
